Patent US10717740B2, “Solid forms of acalabrutinib and process for preparation thereof” (DR. REDDY'S LABORATORIES LIMITED, priority 2017, dated 2020)

Experiment: Solid-state storage stability of the crystalline form
Assay type: physicochemical

Measured: stability of crystalline form on storage

CC#CC(=O)N1CCC[C@H]1c1nc(-c2ccc(C(=O)Nc3ccccn3)cc2)c2c(N)nccn12 [form RSV3, acalabrutinib]
stable: 3 months at 2-8° C. | 3 months at 25° C./60% RH | 3 months at 40° C./75% RH
